Measurements reported in patent US20140171357A1, “VANCOMYCIN DERIVATIVES” (Seachald Pharmaceuticals, Inc., priority 2011, published 2014).
In brackets after ≈: the same amount, converted by molar mass.

Assays:
[1] = tested on: VanB vancomycin-resistant E. faecium (10); experiment: MIC broth microdilution, VanB E. faecium; details: E. faecium, VanB (10)
[2] = tested on: Staphylococcus epidermidis (43 strains); experiment: MIC broth microdilution, S. epidermidis; details: S. epidermidis (43)
[3] = tested on: vancomycin-susceptible E. faecium (21); experiment: MIC broth microdilution, vancomycin-susceptible E. faecium; details: E. faecium, vancomycin-susceptible (21)
[4] = tested on: methicillin-susceptible S. aureus (MSSA, 22); experiment: MIC broth microdilution, MSSA; details: MSSA (22)
S. pneumoniae (22) = experiment: MIC broth microdilution, S. pneumoniae; details: S. pneumoniae (22); MHB + lysed horse blood
[5] = tested on: vancomycin-intermediate S. aureus (VISA, 5); experiment: MIC broth microdilution, VISA
[6] = tested on: β-hemolytic streptococci (23); experiment: MIC broth microdilution, β-hemolytic streptococci; details: β-hemolytic streptococci (23); MHB + lysed horse blood
[7] = tested on: methicillin-resistant S. aureus (MRSA, 22); experiment: MIC broth microdilution, MRSA; details: MRSA (22)
[8] = tested on: heterogeneous VISA (hVISA, 10); experiment: MIC broth microdilution, hVISA
[9] = tested on: vancomycin-susceptible E. faecalis (23); experiment: MIC broth microdilution, vancomycin-susceptible E. faecalis; details: E. faecalis, vancomycin-susceptible (23)
S. aureus ATCC 25923 = experiment: Neutropenic murine thigh infection model; details: for AUCc-t (AUC difference between control and treated animals): 24 h time kill
[10] = tested on: VanA vancomycin-resistant E. faecium (10); experiment: MIC broth microdilution, VanA E. faecium; details: E. faecium, VanA (10)
VanC enterococci (22) = experiment: MIC broth microdilution, vanC-carrying enterococci; details: VanC enterococci (22)
[11] = tested on: Staphylococcus aureus (65 strains); experiment: MIC broth microdilution, S. aureus all isolates; details: S. aureus (65), all resistance subsets
[12] = tested on: VanB vancomycin-resistant E. faecalis (12); experiment: MIC broth microdilution, VanB E. faecalis; details: E. faecalis, VanB (12)
[13] = tested on: vancomycin-resistant S. aureus (VRSA, 6); experiment: MIC broth microdilution, VRSA
[14] = tested on: VanA vancomycin-resistant E. faecalis (11); experiment: MIC broth microdilution, VanA E. faecalis; details: E. faecalis, VanA (11)
[15] = 1 mg/kg single intraperitoneal dose
[16] = 4 mg/kg single intraperitoneal dose
[17] = 16 mg/kg single intraperitoneal dose

| Compound | MIC 50% [1] | MIC 90% [1] | MIC 50% [2] | MIC 90% [2] | MIC 50% [3] | MIC 90% [3] | MIC 50% [4] | MIC 90% [4] | MIC 50% (S. pneumoniae (22)) | MIC 90% (S. pneumoniae (22)) | MIC 50% [5] | MIC 50% [6] | MIC 90% [6] | MIC 50% [7] | MIC 90% [7] | MIC 50% [8] | MIC 90% [8] | MIC 50% [9] | MIC 90% [9] | Max Kill (maximum decrease from initial infection level) (S. aureus ATCC 25923; [15]) | also measured |
| --- | --- | --- | --- | --- | --- | --- | --- | --- | --- | --- | --- | --- | --- | --- | --- | --- | --- | --- | --- | --- | --- |
| CNC(CC(C)C)C(=O)NC1C(=O)NC(CC(N)=O)C(=O)NC2C(=O)NC3C(=O)NC(C(=O)NC(C(=O)O)c4cc(O)c(CNCCOCCOCCN)c(O)c4-c4cc3ccc4O)C(O)c3ccc(c(Cl)c3)Oc3cc2cc(c3OC2OC(CO)C(O)C(O)C2OC2CC(C)(NCc3ccc(-c4ccc(Cl)cc4)cc3)C(O)C(C)O2)Oc2ccc(cc2Cl)C1O (stereo not drawn) [Compound 11] | 0.06 µg/mL (≈ 0.0331 µM) | 0.12 µg/mL (≈ 0.0663 µM) | 0.06 µg/mL (≈ 0.0331 µM) | 0.06 µg/mL (≈ 0.0331 µM) | 0.06 µg/mL (≈ 0.0331 µM) | 0.12 µg/mL (≈ 0.0663 µM) | 0.12 µg/mL (≈ 0.0663 µM) | 0.12 µg/mL (≈ 0.0663 µM) | 0.06 µg/mL | 0.06 µg/mL | 0.25 µg/mL (≈ 0.138 µM) | 0.06 µg/mL | 0.12 µg/mL | 0.12 µg/mL (≈ 0.0663 µM) | 0.12 µg/mL (≈ 0.0663 µM) | 0.12 µg/mL (≈ 0.0663 µM) | 0.12 µg/mL (≈ 0.0663 µM) | 0.25 µg/mL (≈ 0.138 µM) | 0.25 µg/mL (≈ 0.138 µM) | 0.59 Log10 CFU/thigh | AUCc-t (AUC difference between control and treated animals) (S. aureus ATCC 25923; [15]): 12.9 (Log10 CFU/thigh)/hr; Max Kill (maximum decrease from initial infection level) (S. aureus ATCC 25923; [16]): 0.46 Log10 CFU/thigh; AUCc-t (AUC difference between control and treated animals) (S. aureus ATCC 25923; [16]): 10.8 (Log10 CFU/thigh)/hr; Max Kill (maximum decrease from initial infection level) (S. aureus ATCC 25923; [17]): −0.39 Log10 CFU/thigh; AUCc-t (AUC difference between control and treated animals) (S. aureus ATCC 25923; [17]): 34.7 (Log10 CFU/thigh)/hr; MIC 50% [10]: 2 µg/mL (≈ 1.1 µM); MIC 90% [10]: 4 µg/mL (≈ 2.21 µM); MIC 50% (VanC enterococci (22)): 0.25 µg/mL (≈ 0.138 µM); MIC 90% (VanC enterococci (22)): 0.5 µg/mL (≈ 0.276 µM); MIC 50% [11]: 0.12 µg/mL (≈ 0.0663 µM); MIC 90% [11]: 0.5 µg/mL (≈ 0.276 µM); MIC 50% [12]: 0.25 µg/mL (≈ 0.138 µM); MIC 90% [12]: 0.25 µg/mL (≈ 0.138 µM); MIC 50% [13]: 4 µg/mL (≈ 2.21 µM); MIC 50% [14]: 4 µg/mL (≈ 2.21 µM); MIC 90% [14]: 8 µg/mL (≈ 4.42 µM) |
| CNC(CC(C)C)C(=O)NC1C(=O)NC(CC(N)=O)C(=O)NC2C(=O)NC3C(=O)NC(C(=O)NC(C(=O)O)c4cc(O)c(CNCCOCCOCCN(C)C)c(O)c4-c4cc3ccc4O)C(O)c3ccc(c(Cl)c3)Oc3cc2cc(c3OC2OC(CO)C(O)C(O)C2OC2CC(C)(NCc3ccc(-c4ccc(Cl)cc4)cc3)C(O)C(C)O2)Oc2ccc(cc2Cl)C1O (stereo not drawn) [Compound 12] | 0.12 µg/mL (≈ 0.0653 µM) | 0.12 µg/mL (≈ 0.0653 µM) | 0.06 µg/mL (≈ 0.0326 µM) | 0.12 µg/mL (≈ 0.0653 µM) | 0.12 µg/mL (≈ 0.0653 µM) | 0.12 µg/mL (≈ 0.0653 µM) | 0.12 µg/mL (≈ 0.0653 µM) | 0.12 µg/mL (≈ 0.0653 µM) | 0.06 µg/mL | 0.06 µg/mL | 0.25 µg/mL (≈ 0.136 µM) | 0.06 µg/mL | 0.06 µg/mL | 0.12 µg/mL (≈ 0.0653 µM) | 0.12 µg/mL (≈ 0.0653 µM) | 0.12 µg/mL (≈ 0.0653 µM) | 0.12 µg/mL (≈ 0.0653 µM) | 0.25 µg/mL (≈ 0.136 µM) | 0.25 µg/mL (≈ 0.136 µM) | 1.1 Log10 CFU/thigh | AUCc-t (AUC difference between control and treated animals) (S. aureus ATCC 25923; [15]): 6.1 (Log10 CFU/thigh)/hr; Max Kill (maximum decrease from initial infection level) (S. aureus ATCC 25923; [16]): −0.03 Log10 CFU/thigh; AUCc-t (AUC difference between control and treated animals) (S. aureus ATCC 25923; [16]): 17.6 (Log10 CFU/thigh)/hr; Max Kill (maximum decrease from initial infection level) (S. aureus ATCC 25923; [17]): 0.0005 Log10 CFU/thigh; AUCc-t (AUC difference between control and treated animals) (S. aureus ATCC 25923; [17]): 29.3 (Log10 CFU/thigh)/hr; MIC 50% [10]: 2 µg/mL (≈ 1.09 µM); MIC 90% [10]: 4 µg/mL (≈ 2.18 µM); MIC 50% (VanC enterococci (22)): 0.25 µg/mL (≈ 0.136 µM); MIC 90% (VanC enterococci (22)): 0.5 µg/mL (≈ 0.272 µM); MIC 50% [11]: 0.12 µg/mL (≈ 0.0653 µM); MIC 90% [11]: 0.5 µg/mL (≈ 0.272 µM); MIC 50% [12]: 0.25 µg/mL (≈ 0.136 µM); MIC 90% [12]: 0.25 µg/mL (≈ 0.136 µM); MIC 50% [13]: 8 µg/mL (≈ 4.35 µM); MIC 50% [14]: 8 µg/mL (≈ 4.35 µM); MIC 90% [14]: 16 µg/mL (≈ 8.7 µM) |
